Patent US5486595A, “Tumor necrosis factor inhibitors” (Centecor, Inc., priority 1994, dated 1996)
Where a SMILES comes first, the peptide text is derived from it.

Target: T1, human TNFα (Homo sapiens, UniProt P01375)
T1 construct: purchased Biosource, Camarillo, Calif
Test: p55 Receptor/IgG Fusion Protein Binding Assay (inhibition of TNFα capture by p55-Ig coated plate)
Conditions: peptide 1 mM; TNFα 25 ng/ml; read-out: inhibition of binding of TNFα to p55TNFr-IgG chimeric construct
Procedure: This assay was designed to identify peptides which bind to human TNFα and thereby prevent the capture of the TNFα by a microtiter plate coated with p55-Ig fusion protein. A constant concentration of human TNFα is preincubated with the test peptide and then incubated on the p55-Ig coated microtiter wells. Bound TNFα is detected using a specific antisera and an alkaline phosphatase-conjugated probe.
A 96-well, U-bottom polyvinylchloride microtiter plate was coated with 50 μl/well of p55-Ig fusion protein at 5 μg/ml in 0.01M sodium phosphate, 0.15M sodium chloride (PBS) by incubation overnight at 4° C. or 2 hours at 37° C. The fusion protein, which consists of a p55 TNF receptor protein portion and an IgG portion, can be produced as disclosed in U.S. application Ser. No. 08/010,406 filed Jan. 29, 1993 which is incorporated herein by reference. The plate was washed three times with 0.05% Tween-20 in PBS, then blocked, by adding 150 μl/well of assay buffer (10 mM N-2-hydroxyethylpiperazine-N'-[…] (HEPES) pH 7.2, containing 0.1% porcine gelatin, 0.1% Tween-80, and 0.01% sodium azide) and continuing incubation for 1 hour at 37° C. or at 4° C. for 1-7 days.
Lyophilized peptides to be tested were weighed in tared 12×75 mm polystyrene tubes and reconstituted to a concentration of 1.2 mM with assay buffer. Each suspension was sonicated in a water bath for 1-5 minutes and vortexed 15-30 seconds to disperse large particles. Serial dilutions of each peptide suspension were prepared using assay buffer in a 96-well polystyrene microtiter plate. Additional wells received Fab fragment of the mouse/human monoclonal anti-human TNFα antibody cA2 (positive control) or assay buffer (negative control). […] The polystyrene dilution plate was then sealed and incubated 1 hour at room temperature on an orbital mixer set at moderate speed.
Following the sample preincubation, blocker was discarded from the p55-Ig coated plate and blotted dry. Aliquots (50 μl) of each peptide or control were transferred into duplicate wells on the p55-Ig coated plate which was then sealed and incubated i hour at 37° C. Duplicate wells containing only assay buffer were included as a plate blank. After incubation the p55-Ig plate was washed three times with 0.05% Tween-20 in PBS.
To detect TNFα captured by the p55-Ig plate, all wells were incubated in succession with polyclonal rabbit anti-human TNFα (Genzyme, Boston, Mass.; 1:500 in assay buffer, 50 μl/well), biotinylated goat anti-rabbit Ig (H&L) (Vector Laboratories, Burlingame, Calif.; 1 μg/ml in assay buffer, 50 μl/well) and streptavidin-alkaline phosphatase conjugate (Pierce, Rockford, Ill.; 1 μg/ml in assay buffer, 50 μl/well). All incubations were for 1 hour at 37° C. and after each incubation the plate was washed three times with 0.05% Tween-20 in PBS. Fifty microliters of alkaline phosphatase substrate solution (alkaline buffer (Sigma, St. Louis, Mo.) diluted 1:500 in deionized water plus one 5 mg tablet of p-nitrophenyl phosphate (Sigma, St. Louis, Mo.) per 5 ml of diluted buffer) was added to all wells and incubation continued for 20 minutes at room temperature. Color development was stopped by adding to all wells 50 μl of 3N sodium hydroxide. The optical density (OD) at 405 nm was measured on a microtiter plate reader (Molecular Devices Vmax plate reader), with the plate blank wells subtracted as background. The activity of each peptide was then expressed as the percent inhibition of TNFα capture by the p55-Ig plate, relative to the amount of TNFα captured in wells containing only assay buffer (negative control), as follows: % inhibition=100-((mean OD peptide/mean OD negative control)×100).
The inhibition of binding of TNFα to p55TNFr-IgG chimeric construct was performed as described above using several embodiments of the invention. The peptides were tested at a concentration of 1 mM.

T1 sequence (P01375 77-233 limits assumed): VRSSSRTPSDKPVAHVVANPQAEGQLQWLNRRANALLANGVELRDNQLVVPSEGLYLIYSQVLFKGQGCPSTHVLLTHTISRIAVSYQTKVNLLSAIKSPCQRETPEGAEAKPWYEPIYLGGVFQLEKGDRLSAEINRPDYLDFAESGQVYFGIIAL

| inhibition at 1000 µM [%] | SMILES |
| --- | --- |
| 46 | CC(C)C[C@H](N)C(=O)N[C@@H](Cc1ccc(O)cc1)C(=O)N[C@@H](CC(N)=O)C(=O)N[C@@H](CC(=O)O)C(=O)N[C@@H](C)C(=O)N1CCC[C@H]1C(=O)NCC(=O)N1CCC[C@H]1C(=O)NCC(=O)N[C@@H](CCC(N)=O)C(=O)N[C@@H](CC(=O)O)C(=O)N[C@H](C(=O)N[C@@H](CC(=O)O)C(=O)N[C@@H](C)C(=O)N[C@@H](CCCNC(=N)N)C(N)=O)[C@@H](C)O [SEQ ID NO:1, Leucyl-tyrosyl-asparaginyl-aspartyl-alanyl-prolyl-glycyl-prolyl-glycyl-glutaminyl-aspartyl-threonyl-aspartyl-alanyl-arginine Amide] (H-LYNDAPGPGQDTDAR-NH2) |
| 62 | C[C@H](NC(=O)[C@H](CCC(=O)O)NC(=O)[C@H](CCCNC(=N)N)NC(=O)[C@H](C)NC(=O)[C@H](CC(=O)O)NC(=O)[C@@H](NC(=O)[C@H](CC(=O)O)NC(=O)[C@H](CCC(N)=O)NC(=O)CNC(=O)[C@@H]1CCCN1C(=O)CNC(=O)[C@@H]1CCCN1C(=O)[C@H](C)NC(=O)[C@@H](N)CC(=O)O)[C@@H](C)O)C(=O)N[C@@H](CCC(=O)O)C(N)=O [SEQ ID NO:2] (H-DAPGPGQDTDAREAE-NH2) |
| 53 | C[C@H](NC(=O)[C@H](CCC(=O)O)NC(=O)[C@H](CCCNC(=N)N)NC(=O)[C@H](C)NC(=O)[C@H](CC(=O)O)NC(=O)[C@@H](NC(=O)[C@H](CC(=O)O)NC(=O)[C@H](CCC(N)=O)NC(=O)CNC(=O)[C@@H]1CCCN1C(=O)CN)[C@@H](C)O)C(=O)N[C@@H](CCC(=O)O)C(=O)N[C@@H](CO)C(=O)NCC(=O)N[C@@H](CO)C(N)=O [SEQ ID NO:3, Glycyl-prolyl-glycyl-glutaminyl-aspartyl-threonyl-aspartyl-alanyl-arginyl-glutamyl-alanyl-glutamyl-seryl-glycyl-serine Amide] (H-GPGQDTDAREAESGS-NH2) |
| 53 | C[C@H](NC(=O)[C@@H](NC(=O)[C@H](Cc1ccccc1)NC(=O)[C@H](CO)NC(=O)CNC(=O)[C@H](CO)NC(=O)[C@H](CCC(=O)O)NC(=O)[C@H](C)NC(=O)[C@H](CCC(=O)O)NC(=O)[C@H](CCCNC(=N)N)NC(=O)[C@H](C)NC(=O)[C@H](CC(=O)O)NC(=O)[C@@H](NC(=O)[C@H](CC(=O)O)NC(=O)[C@@H](N)CCC(N)=O)[C@@H](C)O)[C@@H](C)O)C(N)=O [SEQ ID NO:4, Glutaminyl-aspartyl-threonyl-aspartyl-alanyl-arginyl-glutamyl-alanyl-glutamyl-seryl-glycyl-seryl-phenylalanyl-threonyl-alanine Amide] (H-QDTDAREAESGSFTA-NH2) |
| 58 | C[C@H](NC(=O)[C@H](CCC(=O)O)NC(=O)[C@H](CCCNC(=N)N)NC(=O)[C@H](C)NC(=O)[C@@H](N)CC(=O)O)C(=O)N[C@@H](CCC(=O)O)C(=O)N[C@@H](CO)C(=O)NCC(=O)N[C@@H](CO)C(=O)N[C@@H](Cc1ccccc1)C(=O)N[C@H](C(=O)N[C@@H](C)C(=O)N[C@@H](CO)C(=O)N[C@@H](CCC(=O)O)C(=O)N[C@@H](CC(N)=O)C(N)=O)[C@@H](C)O [SEQ ID NO:5] (H-DAREAESGSFTASEN-NH2) |
| 53 | CC(C)C[C@H](NC(=O)[C@H](Cc1c[nH]cn1)NC(=O)[C@H](CC(N)=O)NC(=O)[C@H](CCC(=O)O)NC(=O)[C@H](CO)NC(=O)[C@H](C)NC(=O)[C@@H](NC(=O)[C@H](Cc1ccccc1)NC(=O)[C@H](CO)NC(=O)CNC(=O)[C@H](CO)NC(=O)[C@H](CCC(=O)O)NC(=O)[C@H](C)NC(=O)[C@@H](N)CCC(=O)O)[C@@H](C)O)C(=O)N[C@@H](CCCNC(=N)N)C(N)=O [SEQ ID NO:6, Glutamyl-alanyl-glutamyl-seryl-glycyl-seryl-phenylalanyl-threonyl-alanyl-seryl-glutamyl-asparaginyl-histidyl-leucyl-arginine Amide] (H-EAESGSFTASENHLR-NH2) |
| 42 | CC[C@H](C)[C@H](NC(=O)[C@H](CCC(=O)O)NC(=O)[C@@H](NC(=O)[C@H](CCC(N)=O)NC(=O)CNC(=O)[C@H](CCSC)NC(=O)[C@H](CCC(=O)O)NC(=O)[C@@H](N)CCCCN)C(C)C)C(=O)N[C@@H](CO)C(=O)N[C@@H](CO)C(=O)N[C@@H](C)C(=O)N[C@H](C(=O)N[C@H](C(=O)N[C@@H](CC(=O)O)C(=O)N[C@@H](CCCNC(=N)N)C(N)=O)C(C)C)[C@@H](C)O [SEQ ID NO:7] |
| 56 | CC[C@H](C)[C@H](NC(=O)[C@H](CCC(=O)O)NC(=O)[C@@H](NC(=O)[C@H](CCC(N)=O)NC(=O)CN)C(C)C)C(=O)N[C@@H](CO)C(=O)N[C@@H](CO)C(=O)N[C@@H](C)C(=O)N[C@H](C(=O)N[C@H](C(=O)N[C@@H](CC(=O)O)C(=O)N[C@@H](CCCNC(=N)N)C(=O)N[C@@H](CC(=O)O)C(=O)N[C@H](C(=O)N[C@H](C(N)=O)C(C)C)[C@@H](C)O)C(C)C)[C@@H](C)O [SEQ ID NO:8] (H-GQVEISSATVDRDTV-NH2) |
| 30 | CC(C)[C@H](NC(=O)[C@@H](NC(=O)[C@@H](N)CC(=O)O)[C@@H](C)O)C(=O)N[C@@H](C)C(=O)NCC(=O)N[C@@H](C)C(=O)N[C@@H](CCCNC(=N)N)C(=O)N[C@@H](CCCCN)C(=O)N[C@@H](CC(N)=O)C(=O)N[C@@H](CCC(N)=O)C(=O)N[C@@H](Cc1ccc(O)cc1)C(=O)N[C@@H](CCCNC(=N)N)C(=O)N[C@@H](Cc1c[nH]cn1)C(=O)N[C@@H](Cc1ccc(O)cc1)C(=O)N[C@@H](Cc1c[nH]c2ccccc12)C(N)=O [SEQ ID NO:9, Aspartyl-threonyl-valyl-alanyl-glycyl-alanyl-arginyl-lysyl-asparaginyl-glutaminyl-tyrosyl-arginyl-histidyl-tyrosyl-tryptophan Amide] (H-DTVAGARKNQYRHYW-NH2) |
| 49 | CC(C)C[C@H](NC(=O)[C@H](CC(N)=O)NC(=O)[C@H](CCC(=O)O)NC(=O)[C@H](CO)NC(=O)[C@H](Cc1c[nH]c2ccccc12)NC(=O)[C@H](Cc1ccc(O)cc1)NC(=O)[C@H](Cc1c[nH]cn1)NC(=O)[C@H](CCCNC(=N)N)NC(=O)[C@H](Cc1ccc(O)cc1)NC(=O)[C@H](CCC(N)=O)NC(=O)[C@H](CC(N)=O)NC(=O)[C@H](CCCCN)NC(=O)[C@@H](N)CCCNC(=N)N)C(=O)N[C@@H](Cc1ccccc1)C(=O)N[C@@H](CCC(N)=O)C(N)=O [SEQ ID NO:10] |
| 27 | CC(=O)N[C@@H](CCC(N)=O)C(=O)N[C@@H](Cc1ccc(O)cc1)C(=O)N[C@@H](CCCNC(=N)N)C(=O)N[C@@H](Cc1c[nH]cn1)C(=O)N[C@@H](Cc1ccc(O)cc1)C(=O)N[C@@H](Cc1c[nH]c2ccccc12)C(=O)N[C@@H](CO)C(=O)N[C@@H](CCC(=O)O)C(=O)N[C@@H](CC(N)=O)C(=O)N[C@@H](CC(C)C)C(=O)N[C@@H](Cc1ccccc1)C(=O)N[C@@H](CCC(N)=O)C(=O)N[C@@H](C)C(=O)N[C@@H](Cc1ccccc1)C(=O)N[C@@H](CC(N)=O)C(N)=O [SEQ ID NO:11, Acetyl-glutaminyl-tyrosyl-arginyl-histidyl-tyrosyl-tryptophyl-seryl-glutamyl-asparaginyl-leucyl-phenylalanyl-glutaminyl-alanyl-phenylalanyl-asparagineAmide] |

Same assay, conditions: various concentrations of peptide

| dose dependent inhibition of TNFα (FIG. 1) | SMILES |
| --- | --- |
| dose dependent inhibition | CC(=O)N[C@@H](CCC(N)=O)C(=O)N[C@@H](Cc1ccc(O)cc1)C(=O)N[C@@H](CCCNC(=N)N)C(=O)N[C@@H](Cc1c[nH]cn1)C(=O)N[C@@H](Cc1ccc(O)cc1)C(=O)N[C@@H](Cc1c[nH]c2ccccc12)C(=O)N[C@@H](CO)C(=O)N[C@@H](CCC(=O)O)C(=O)N[C@@H](CC(N)=O)C(=O)N[C@@H](CC(C)C)C(=O)N[C@@H](Cc1ccccc1)C(=O)N[C@@H](CCC(N)=O)C(=O)N[C@@H](C)C(=O)N[C@@H](Cc1ccccc1)C(=O)N[C@@H](CC(N)=O)C(N)=O [SEQ ID NO:11, Acetyl-glutaminyl-tyrosyl-arginyl-histidyl-tyrosyl-tryptophyl-seryl-glutamyl-asparaginyl-leucyl-phenylalanyl-glutaminyl-alanyl-phenylalanyl-asparagineAmide] |
